Experimental data as given in the kinase profiling compilation of Christmann-Franck et al. (2016).

Columns and labels:
Experiment in all cases: radiometric filter-binding kinase assay, Kinase HotSpot
Conditions in all cases: compound 0.5 µM; ATP 10 µM
[1] = biological target: STK39 (human) (UniProt Q9UEW8)
[2] = biological target: GSG2 (human) (UniProt Q8TF76)
[3] = biological target: MAPKAPK5 (human) (UniProt Q8IW41)
[4] = biological target: MST1R (human) (UniProt Q04912)
[5] = biological target: RPS6KA6 KD1 KD2 (human) (UniProt Q9UK32)
[6] = biological target: CAMK1D (human) (UniProt Q8IU85)
[7] = biological target: STK33 (human) (UniProt Q9BYT3)
[8] = biological target: NLK (human) (UniProt Q9UBE8)
[9] = biological target: TEC (human) (UniProt P42680)
[10] = biological target: CDK4 CCND3 (human) (UniProt P30281+P11802)
[11] = biological target: OXSR1 (human) (UniProt O95747)
[12] = biological target: LCK (human) (UniProt P06239)
[13] = biological target: EPHA7 (human) (UniProt Q15375)
[14] = biological target: PRKCZ (human) (UniProt Q05513)
[15] = biological target: HIPK2 (human) (UniProt Q9H2X6)
[16] = biological target: TAOK1 (human) (UniProt Q7L7X3)
[17] = biological target: ALK (human) (UniProt Q9UM73)
[18] = biological target: DYRK3 (human) (UniProt O43781)
[19] = biological target: SRC (human) (UniProt P12931)
[20] = biological target: PHKG1 (human) (UniProt Q16816)
[21] = biological target: MAP4K5 (human) (UniProt Q9Y4K4)
[22] = biological target: MARK1 (human) (UniProt Q9P0L2)
[23] = biological target: AKT1 (human) (UniProt P31749)
[24] = biological target: ROS1 (human) (UniProt P08922)
[25] = biological target: CSF1R (human) (UniProt P07333)
[26] = biological target: TSSK1B (human) (UniProt Q9BXA7)
[27] = biological target: FLT1 (human) (UniProt P17948)
[28] = biological target: TAOK2 (human) (UniProt Q9UL54)
[29] = biological target: PAK4 (human) (UniProt O96013)
[30] = biological target: FRK (human) (UniProt P42685)
[31] = biological target: MINK1 (human) (UniProt Q8N4C8)
[32] = biological target: ZAP70 (human) (UniProt P43403)
[33] = biological target: NEK9 (human) (UniProt Q8TD19)
[34] = biological target: PKN2 (human) (UniProt Q16513)
[35] = biological target: EPHA1 (human) (UniProt P21709)
[36] = biological target: CAMK4 (human) (UniProt Q16566)
[37] = biological target: MUSK (human) (UniProt O15146)
[38] = biological target: ACVRL1 (human) (UniProt P37023)
[39] = biological target: GSK3A (human) (UniProt P49840)
[40] = biological target: MAPKAPK3 (human) (UniProt Q16644)
[41] = biological target: EPHA3 (human) (UniProt P29320)
[42] = biological target: GRK7 (human) (UniProt Q8WTQ7)

Sequence of FRK (human) (P42685 whole entry, looked up): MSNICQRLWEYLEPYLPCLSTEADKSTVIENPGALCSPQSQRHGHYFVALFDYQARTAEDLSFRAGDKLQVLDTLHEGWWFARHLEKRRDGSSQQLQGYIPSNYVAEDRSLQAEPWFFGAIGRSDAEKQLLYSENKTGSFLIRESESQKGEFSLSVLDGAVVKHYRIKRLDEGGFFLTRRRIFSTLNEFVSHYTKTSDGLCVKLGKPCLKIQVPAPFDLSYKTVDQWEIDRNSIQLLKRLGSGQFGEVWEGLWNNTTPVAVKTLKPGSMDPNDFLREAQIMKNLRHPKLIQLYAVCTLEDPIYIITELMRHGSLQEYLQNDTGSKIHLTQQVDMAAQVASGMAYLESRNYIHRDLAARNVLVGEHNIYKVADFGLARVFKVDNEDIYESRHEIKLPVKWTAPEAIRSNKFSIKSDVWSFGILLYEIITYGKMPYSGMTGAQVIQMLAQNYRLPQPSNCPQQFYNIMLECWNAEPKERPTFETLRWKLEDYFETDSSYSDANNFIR
Sequence of RPS6KA6 KD1 KD2 (human) (Q9UK32 whole entry, looked up): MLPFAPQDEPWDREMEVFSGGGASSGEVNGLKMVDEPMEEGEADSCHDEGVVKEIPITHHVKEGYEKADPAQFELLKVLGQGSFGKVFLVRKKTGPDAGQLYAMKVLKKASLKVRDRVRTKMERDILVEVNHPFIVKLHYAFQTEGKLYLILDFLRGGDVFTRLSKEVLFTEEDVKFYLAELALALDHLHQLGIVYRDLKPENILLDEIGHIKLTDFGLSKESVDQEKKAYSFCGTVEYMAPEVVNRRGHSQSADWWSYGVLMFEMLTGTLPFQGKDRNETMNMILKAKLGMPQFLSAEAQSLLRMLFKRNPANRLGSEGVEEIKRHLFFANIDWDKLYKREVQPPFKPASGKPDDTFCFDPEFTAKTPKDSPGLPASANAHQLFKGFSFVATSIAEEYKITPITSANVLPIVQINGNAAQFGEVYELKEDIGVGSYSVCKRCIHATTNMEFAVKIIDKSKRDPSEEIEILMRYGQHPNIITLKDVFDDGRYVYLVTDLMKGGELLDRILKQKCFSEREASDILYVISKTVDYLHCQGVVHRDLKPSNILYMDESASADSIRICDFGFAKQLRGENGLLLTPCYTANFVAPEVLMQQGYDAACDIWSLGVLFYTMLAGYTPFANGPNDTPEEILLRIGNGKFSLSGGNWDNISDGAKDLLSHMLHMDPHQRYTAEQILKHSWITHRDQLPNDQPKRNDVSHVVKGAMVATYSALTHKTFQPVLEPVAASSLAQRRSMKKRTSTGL
Sequence of GSG2 (human) (Q8TF76 whole entry, looked up): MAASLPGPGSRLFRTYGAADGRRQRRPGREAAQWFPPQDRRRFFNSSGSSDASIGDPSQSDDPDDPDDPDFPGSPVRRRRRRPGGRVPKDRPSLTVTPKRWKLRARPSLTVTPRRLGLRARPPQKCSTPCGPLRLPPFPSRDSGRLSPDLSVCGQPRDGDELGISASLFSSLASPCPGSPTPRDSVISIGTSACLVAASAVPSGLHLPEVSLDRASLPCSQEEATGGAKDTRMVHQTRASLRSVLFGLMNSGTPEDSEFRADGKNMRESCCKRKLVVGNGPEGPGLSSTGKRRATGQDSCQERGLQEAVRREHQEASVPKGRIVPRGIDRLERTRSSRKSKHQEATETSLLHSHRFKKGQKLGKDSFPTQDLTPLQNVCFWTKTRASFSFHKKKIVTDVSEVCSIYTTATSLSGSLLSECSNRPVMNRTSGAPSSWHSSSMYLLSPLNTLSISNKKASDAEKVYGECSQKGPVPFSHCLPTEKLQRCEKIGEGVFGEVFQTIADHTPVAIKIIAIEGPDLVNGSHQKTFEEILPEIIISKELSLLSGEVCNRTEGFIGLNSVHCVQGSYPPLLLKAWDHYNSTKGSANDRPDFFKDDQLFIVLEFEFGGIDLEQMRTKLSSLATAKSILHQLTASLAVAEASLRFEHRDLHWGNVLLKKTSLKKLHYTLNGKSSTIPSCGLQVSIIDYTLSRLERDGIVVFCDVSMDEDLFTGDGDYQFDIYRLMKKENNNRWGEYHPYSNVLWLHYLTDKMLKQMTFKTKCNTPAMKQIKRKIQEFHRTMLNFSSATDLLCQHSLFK
Sequence of MAP4K5 (human) (Q9Y4K4 whole entry, looked up): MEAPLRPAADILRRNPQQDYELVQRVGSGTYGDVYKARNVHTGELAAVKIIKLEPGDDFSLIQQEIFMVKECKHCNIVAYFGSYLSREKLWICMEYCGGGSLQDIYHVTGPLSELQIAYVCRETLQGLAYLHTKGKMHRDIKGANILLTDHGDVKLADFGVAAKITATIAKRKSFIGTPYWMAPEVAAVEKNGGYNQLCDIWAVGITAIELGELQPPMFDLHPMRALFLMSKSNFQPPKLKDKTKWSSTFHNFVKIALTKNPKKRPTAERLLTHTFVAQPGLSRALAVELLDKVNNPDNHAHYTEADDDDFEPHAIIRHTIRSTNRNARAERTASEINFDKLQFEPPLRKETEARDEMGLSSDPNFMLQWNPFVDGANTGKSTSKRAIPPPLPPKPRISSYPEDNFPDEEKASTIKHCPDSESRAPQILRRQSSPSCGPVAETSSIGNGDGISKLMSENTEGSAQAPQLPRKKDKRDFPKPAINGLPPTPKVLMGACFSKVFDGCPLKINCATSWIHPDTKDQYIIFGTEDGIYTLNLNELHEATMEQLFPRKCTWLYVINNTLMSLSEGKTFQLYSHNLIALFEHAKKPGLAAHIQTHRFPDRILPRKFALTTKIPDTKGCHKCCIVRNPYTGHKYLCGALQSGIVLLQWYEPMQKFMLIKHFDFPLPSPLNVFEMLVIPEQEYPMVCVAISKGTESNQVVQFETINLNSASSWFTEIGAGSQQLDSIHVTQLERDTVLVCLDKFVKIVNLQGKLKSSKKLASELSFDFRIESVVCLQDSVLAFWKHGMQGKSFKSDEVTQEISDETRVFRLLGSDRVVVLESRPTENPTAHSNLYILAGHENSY
Sequence of MAPKAPK3 (human) (Q16644 whole entry, looked up): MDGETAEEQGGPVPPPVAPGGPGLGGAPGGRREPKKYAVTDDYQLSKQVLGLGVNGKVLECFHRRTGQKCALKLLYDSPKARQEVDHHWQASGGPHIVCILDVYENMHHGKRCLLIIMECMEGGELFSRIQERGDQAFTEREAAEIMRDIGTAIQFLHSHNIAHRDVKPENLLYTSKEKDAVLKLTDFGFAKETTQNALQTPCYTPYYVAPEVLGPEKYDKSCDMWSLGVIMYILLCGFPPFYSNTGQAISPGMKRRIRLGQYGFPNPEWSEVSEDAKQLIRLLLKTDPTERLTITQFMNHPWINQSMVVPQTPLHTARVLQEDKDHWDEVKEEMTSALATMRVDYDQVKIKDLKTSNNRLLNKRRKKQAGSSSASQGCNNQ
Sequence of MAPKAPK5 (human) (Q8IW41 whole entry, looked up): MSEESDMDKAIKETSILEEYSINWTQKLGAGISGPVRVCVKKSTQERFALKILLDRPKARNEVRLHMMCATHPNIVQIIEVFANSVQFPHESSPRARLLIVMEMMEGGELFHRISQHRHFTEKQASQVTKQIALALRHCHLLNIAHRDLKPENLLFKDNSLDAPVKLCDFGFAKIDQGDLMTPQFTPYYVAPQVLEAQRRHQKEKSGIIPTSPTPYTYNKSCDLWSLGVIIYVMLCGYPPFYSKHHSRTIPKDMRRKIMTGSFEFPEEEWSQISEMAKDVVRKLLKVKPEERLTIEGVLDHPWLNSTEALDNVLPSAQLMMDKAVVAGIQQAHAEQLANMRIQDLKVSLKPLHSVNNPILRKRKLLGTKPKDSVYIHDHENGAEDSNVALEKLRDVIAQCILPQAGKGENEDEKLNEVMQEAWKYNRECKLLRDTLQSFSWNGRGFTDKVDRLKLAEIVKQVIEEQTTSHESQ
Sequence of GSK3A (human) (P49840 whole entry, looked up): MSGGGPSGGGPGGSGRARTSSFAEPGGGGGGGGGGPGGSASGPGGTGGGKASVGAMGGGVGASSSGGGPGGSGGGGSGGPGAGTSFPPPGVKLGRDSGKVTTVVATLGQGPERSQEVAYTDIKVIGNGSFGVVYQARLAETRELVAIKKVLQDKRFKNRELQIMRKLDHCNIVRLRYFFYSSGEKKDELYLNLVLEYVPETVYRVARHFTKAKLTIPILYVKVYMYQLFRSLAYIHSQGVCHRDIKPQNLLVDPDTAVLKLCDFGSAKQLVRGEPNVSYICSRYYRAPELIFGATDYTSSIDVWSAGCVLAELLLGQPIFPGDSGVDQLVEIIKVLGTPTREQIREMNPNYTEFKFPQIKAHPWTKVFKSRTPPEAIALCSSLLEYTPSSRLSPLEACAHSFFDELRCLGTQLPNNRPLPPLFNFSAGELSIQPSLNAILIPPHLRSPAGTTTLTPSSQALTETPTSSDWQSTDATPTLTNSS
Sequence of PRKCZ (human) (Q05513 whole entry, looked up): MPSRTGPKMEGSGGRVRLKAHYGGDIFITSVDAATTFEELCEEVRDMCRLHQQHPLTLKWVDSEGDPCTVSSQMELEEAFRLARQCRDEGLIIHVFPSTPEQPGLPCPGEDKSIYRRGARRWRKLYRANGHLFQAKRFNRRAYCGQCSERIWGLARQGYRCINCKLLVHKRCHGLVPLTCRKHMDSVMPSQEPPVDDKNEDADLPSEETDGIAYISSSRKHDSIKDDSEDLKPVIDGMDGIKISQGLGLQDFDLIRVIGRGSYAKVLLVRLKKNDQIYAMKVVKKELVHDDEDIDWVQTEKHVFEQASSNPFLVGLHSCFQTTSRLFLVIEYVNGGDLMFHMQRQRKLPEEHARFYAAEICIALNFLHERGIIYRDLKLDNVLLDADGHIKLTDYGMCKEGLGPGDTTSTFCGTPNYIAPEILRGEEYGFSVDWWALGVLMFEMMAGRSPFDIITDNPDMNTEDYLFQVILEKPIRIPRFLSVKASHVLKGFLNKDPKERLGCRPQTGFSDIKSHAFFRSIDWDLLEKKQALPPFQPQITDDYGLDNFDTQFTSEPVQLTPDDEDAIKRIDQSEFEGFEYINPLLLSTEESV

For `O=C1Nc2ccccc2/C1=C\c1c(Cl)[nH]c2ccccc12`, the residual activity [1] was 104%, the residual activity [2] was 91% and the residual activity [3] was 121%. For the same molecule, the residual activity [4] was 97.5%, the residual activity [5] was 91.2% and the residual activity [6] was 102%. For the same molecule, the residual activity [7] was 105%, the residual activity [8] was 107% and the residual activity [9] was 124%. For the same molecule, the residual activity [10] was 97.4%, the residual activity [11] was 89.1% and the residual activity [12] was 95.5%. The residual activity [13] was 95.3%, the residual activity [14] was 103% and the residual activity [15] was 96.5%. For the same molecule, the residual activity [16] was 100%, the residual activity [17] was 97.9% and the residual activity [18] was 101%. It also gave a residual activity [19] of 78.5%, a residual activity [20] of 85.4% and a residual activity [21] of 95%. For the same molecule, the residual activity [22] was 96%, the residual activity [23] was 94% and the residual activity [24] was 109%. It also gave a residual activity [25] of 97.2%, a residual activity [26] of 101% and a residual activity [27] of 88.6%. For the same molecule, the residual activity [28] was 104%, the residual activity [29] was 104% and the residual activity [30] was 100%. The residual activity [31] was 94.9%, the residual activity [32] was 106% and the residual activity [33] was 94.2%. The residual activity [34] was 96.3%, the residual activity [35] was 98.5% and the residual activity [36] was 102%. The residual activity [37] was 96.4%, the residual activity [38] was 99.8% and the residual activity [39] was 99.3%. For the same molecule, the residual activity [40] was 91.3%, the residual activity [41] was 95.1% and the residual activity [42] was 106%.
